According to ChEMBL document CHEMBL6092220 (J Med Chem, 2024):
pIC50: −log10 of the molar value. The source made the active and inactive calls. The calls are words filed in the database; no cut-off is given here.

Columns and labels:
[1] = Cmax in Beagle dog at 1 mg/kg, iv; type: ADME, organism-based, Canis lupus familiaris; settings: in vivo
[2] = Antitumor activity against human MOLM16 cells xenografted in mouse assessed as tumor regression at 25 mg/kg, iv; type: functional, MOLM-16
[3] = molecular target: T1, Protein cereblon/Signal transducer and activator of transcription 3 (Mus musculus) (UniProt P42227+Q8C7D2); experiment: In-vivo PROTAC activity at STAT3/CRBN in female CB17 SCID mouse assessed as reduction STAT3 level spleen at 10 mg/kg, iv measured at 72 hrs by Western blot analysis; type: functional, organism-based; design: scale not given: the % may be the effect or the level left
[4] = Cmax in Sprague-Dawley rat at 5 mg/kg, iv; type: ADME, organism-based; settings: in vivo
[5] = Drug concentration in female CB17 SCID mouse tumor at 5 mg/kg, iv measured at 72 hrs by LC-MS/MS analysis; type: ADME, organism-based, Neoplasm; settings: read-out: Ct
[6] = Drug concentration in female CB17 SCID mouse spleen at 5 mg/kg, iv measured at 48 hrs by LC-MS/MS analysis; type: ADME, organism-based; settings: read-out: Ct
[7] = Stability in human plasma assessed as half life; type: ADME, cell-free
[8] = Drug concentration in female CB17 SCID mouse liver at 5 mg/kg, iv measured at 1 hr by LC-MS/MS analysis; type: ADME, organism-based; settings: read-out: Ct
[9] = molecular target: T2, Protein cereblon/Signal transducer and activator of transcription 6 (Homo sapiens) (UniProt P42226+Q96SW2); experiment: PROTAC activity at STAT6/CRBN in human Pfeiffer cells transfected with STAT3 K658R mutant assessed as reduction in STAT6 level upto 40 uM incubated for 20 hrs by Western blot analysis; type: cell-based
[10] = Stability in human Hepatocyte assessed as half life; type: ADME, cell-based; settings: hepatocytes
[11] = Apparent volume of distribution in Beagle dog at 1 mg/kg, iv; type: ADME, organism-based, Canis lupus familiaris; settings: in vivo, read-out: Vz
[12] = molecular target: T3, Protein cereblon/Signal transducer and activator of transcription 3 (Homo sapiens, UniProt P40763+Q96SW2); experiment: PROTAC activity at his-SUMO-tagged STAT3 (127 to 688 residues)/CRBN in human HeLa cells assessed as induction of STAT3 degradation incubated for 24 hrs by TECAN SPARK microplate reader analysis relative to control; type: cell-based
[13] = molecular target: T1, Protein cereblon/Signal transducer and activator of transcription 3 (Mus musculus); experiment: In-vivo PROTAC activity at STAT3/CRBN in female CB17 SCID mouse assessed as reduction STAT3 level liver at 10 mg/kg, iv measured at 24 hrs by Western blot analysis; type: functional, organism-based; design: scale not given: the % may be the effect or the level left
[14] = molecular target: T4, Protein cereblon/Signal transducer and activator of transcription 1-alpha/beta (Homo sapiens, UniProt P42224+Q96SW2); experiment: PROTAC activity at STAT1/CRBN in human MOLM16 cells assessed as reduction in STAT1 level at > 8 uM incubated for 4 hrs by Western blot analysis; type: cell-based
[15] = Plasma protein binding in dog assessed as unbound fraction at 10 uM; type: ADME, cell-free, Canis lupus familiaris
[16] = organism: Homo sapiens; experiment: Binding affinity to STAT5 (unknown origin) assessed as maximum inhibition by FP assay relative to control
[17] = molecular target: T3, Protein cereblon/Signal transducer and activator of transcription 3; experiment: PROTAC activity at his-SUMO-tagged STAT3 (127 to 688 residues)/CRBN in human SU-DHL-1 cells assessed as reduction in STAT3 level at 0.1 to 4000 nM incubated for 20 hrs by Western blot analysis relative to control; type: cell-based; settings: dose 0.1-4000 nM
[18] = Drug concentration in female CB17 SCID mouse tumor at 5 mg/kg, iv measured at 6 hrs by LC-MS/MS analysis; type: ADME, organism-based, Neoplasm; settings: read-out: Ct
[19] = Drug concentration in female CB17 SCID mouse plasma at 5 mg/kg, iv measured at 24 hrs by LC-MS/MS analysis; type: ADME, organism-based
[20] = Antitumor activity against human MOLM16 cells xenografted in mouse assessed as tumor growth inhibition at 10 mg/kg, iv; type: functional, MOLM-16; settings: read-out: TGI
[21] = molecular target: Signal transducer and activator of transcription 4 (Homo sapiens) (UniProt Q14765); experiment: Binding affinity to STAT4 (unknown origin) assessed as maximum inhibition by FP assay relative to control
[22] = molecular target: T4, Protein cereblon/Signal transducer and activator of transcription 1-alpha/beta; experiment: PROTAC activity at STAT1/CRBN in human SU-DHL-1 cells assessed as reduction in STAT1 level upto 40 uM incubated for 20 hrs by Western blot analysis; type: cell-based
[23] = molecular target: T2, Protein cereblon/Signal transducer and activator of transcription 6 (Homo sapiens); experiment: PROTAC activity at STAT6/CRBN in human SU-DHL-1 cells assessed as reduction in STAT6 level incubated for 20 hrs by Western blot analysis; type: cell-based
[24] = molecular target: T3, Protein cereblon/Signal transducer and activator of transcription 3; experiment: PROTAC activity at STAT3/CRBN in human Pfeiffer cells transfected with STAT3 K658R mutant assessed as reduction in STAT3 level at 64 nM incubated for 20 hrs by Western blot analysis; type: cell-based; design: scale not given: the % may be the effect or the level left
[25] = Drug concentration in female CB17 SCID mouse spleen at 5 mg/kg, iv measured at 3 hrs by LC-MS/MS analysis; type: ADME, organism-based; settings: read-out: Ct
[26] = molecular target: T3, Protein cereblon/Signal transducer and activator of transcription 3; experiment: PROTAC activity at his-SUMO-tagged STAT3 (127 to 688 residues)/CRBN in human PBMC cells assessed as reduction in STAT3 level at 0.1 to 4000 nM incubated for 20 hrs by Western blot analysis relative to control; type: cell-based; settings: dose 0.1-4000 nM
[27] = Half life in Sprague-Dawley rat at 5 mg/kg, iv; type: ADME, organism-based; settings: in vivo
[28] = molecular target: Signal transducer and activator of transcription 1-alpha/beta (Homo sapiens, UniProt P42224); experiment: Binding affinity to STAT1 (unknown origin) by FP assay
[29] = molecular target: T3, Protein cereblon/Signal transducer and activator of transcription 3; experiment: PROTAC activity at his-SUMO-tagged STAT3 (127 to 688 residues)/CRBN in human Pfeiffer cells assessed as reduction in STAT3 level upto 40 uM incubated for 4 hrs by Western blot analysis relative to control; type: cell-based; design: scale not given: the % may be the effect or the level left
[30] = Stability in mouse plasma assessed as half life; type: ADME, cell-free
[31] = molecular target: Cytochrome P450 2D6 (Homo sapiens, UniProt P10635); experiment: Inhibition of CYP2D6 (unknown origin); type: ADME
[32] = Drug concentration in female CB17 SCID mouse tumor at 5 mg/kg, iv measured at 24 hrs by LC-MS/MS analysis; type: ADME, organism-based, Neoplasm; settings: read-out: Ct
[33] = molecular target: Cytochrome P450 2B6 (Homo sapiens, UniProt P20813); experiment: Inhibition of CYP2B6 (unknown origin); type: ADME
[34] = Drug concentration in female CB17 SCID mouse liver at 5 mg/kg, iv measured at 6 hrs by LC-MS/MS analysis; type: ADME, organism-based; settings: read-out: Ct
[35] = Clearance in Beagle dog assessed as hepatic blood flow at 1 mg/kg, iv; type: ADME, organism-based, Canis lupus familiaris; settings: in vivo
[36] = molecular target: hERG (KCNH2) (Homo sapiens, UniProt Q12809); experiment: Inhibition of hERG at 3 uM relative to control; type: toxicity
[37] = molecular target: T3, Protein cereblon/Signal transducer and activator of transcription 3; experiment: PROTAC activity at his-SUMO-tagged STAT3 (127 to 688 residues)/CRBN in human MOLM16 cells assessed as reduction in STAT3 level upto 40 uM incubated for 4 hrs by Western blot analysis relative to control; type: cell-based; design: scale not given: the % may be the effect or the level left
[38] = molecular target: Cytochrome P450 2C8 (Homo sapiens, UniProt P10632); experiment: Inhibition of CYP2C8 (unknown origin); type: ADME
[39] = AUC (0 to t) in Sprague-Dawley rat at 5 mg/kg, iv; type: ADME, organism-based; settings: in vivo

With `COC(=O)N1CC[C@H]2CC[C@@H](C(=O)N[C@@H](CCC(N)=O)C(=O)N[C@@H](Cc3ccc(F)c(F)c3)C(=O)N3CCC(CCC#Cc4cccc5c4CN(C4CCC(=O)NC4=O)C5=O)CC3)N2C(=O)[C@@H](NC(=O)c2cc3cc(C(F)(F)P(=O)(O)O)ccc3s2)C1` (some centres undefined) the Cmax [1] was 8860 ng/mL, the Activity [2] was 100% and the Activity [3] was > 90%. For the same compound, the Cmax [4] was 82600 ng/mL, the concentration at 72 h [5] was 925 ng/g and the concentration at 48 h [6] was 615 ng/g. The t1/2 [7] was > 2 h, the concentration at 1 h [8] was 5850 ng/g and the Activity [9] was “inactive”. For the same compound, the t1/2 [10] was > 2 h, the Vd [11] was 0.29 L/kg and the Emax [12] was 84%. The Activity [13] was > 90%, the Activity [14] was “Active” and the Fu [15] was 1.7%. For the same compound, the Imax [16] was 50%, the Emax [17] was > 95% and the concentration at 6 h [18] was 3150 ng/g. The concentration at 24 h [19] was 17100 ng/mL, the inhibition in vivo at 10 mg/kg [20] was 54% and the Imax [21] was 100%. The Activity [22] was “inactive”, the Activity [23] was “Active” and the Activity [24] was > 90%. For the same compound, the concentration at 3 h [25] was 1920 ng/g, the Emax [26] was > 95% and the half-life [27] was 1 h. The pIC50 [28] was 6.57, the Activity [29] was > 95% and the t1/2 [30] was > 2 h. For the same compound, the pIC50 [31] was < 5.00, the concentration at 24 h [32] was 1800 ng/g and the pIC50 [33] was < 5.00. For the same compound, the concentration at 6 h [34] was 3570 ng/g, the QH [35] was 2.7% and the inhibition at 3 µM [36] was 1.3%. The Activity [37] was > 95%, the pIC50 [38] was < 5.00 and the AUC(0-t) [39] was 59500 ng·h/mL.
